Test results taken from patent US10837044B2, “Automated method for analyzing and interpreting an antimicrobial susceptibility” (FONDATION MEDITERRANEE INFECTION, priority 2014, dated 2020).

Legend:
Escherichia coli = experiment: antibiogram by diffusion on Mueller-Hinton agar with antibiotic wafers; format: cell-based; conditions: for synergy zone between two antibiotic wafers placed side by side: E. coli strain of BSBL phenotype, champagne-cork shaped inhibition zone; for resistance (I, R) or sensitivity (S): Table C1, disk loads of Table B; for resistant (I/R) or sensitive (S): Table C2, square dish
Enterobacter aerogenes = experiment: as above; format: cell-based; conditions: Table C1, six wafers, disk loads of Table B
Klebsiella oxytoca = experiment: as above; format: cell-based; conditions: Table C1; K. oxytoca phenotype Wild; six wafers, disk loads of Table B
Klebsiella pneumoniae = experiment: as above; format: cell-based; conditions: for resistance (I, R) or sensitivity (S): Table C1, six wafers, disk loads of Table B; for resistant (I/R) or sensitive (S): Table C2, sixteen wafers, square dish
Proteus mirabilis = experiment: as above; format: cell-based; conditions: Table C1, six wafers, disk loads of Table B
Enterobacter cloacea = experiment: as above; format: cell-based; conditions: Table C1, six wafers, disk loads of Table B
BSBL bacteria = conditions: all of the BSBL bacteria in Table C1
Excerpt: Synergies are generated with the method on agar by the antibiotics diffusing in the agar as a result of the fact that providing the distance between two antibiotics is small enough (in the range 2 centimeters (cm) to 2.5 cm for Gram negative bacteria) they are capable of diffusing over a common portion of the agar, and as a result it is the association of the two antibiotics in this specific location that makes it possible, where appropriate, to see the appearance of a new inhibition zone, which is the synergy zone.
In the event of synergy occurring, it is possible to see mechanisms of synergy between two antibiotics since an additional inhibition zone appears generally between the two antibiotics in question. It may be in the form of an enlargement of the diameter around the disk A going towards the disk B if A and B present mutual synergy.
The BSBL phenotype includes a synergy phenotype between ceftriaxone and clavulanic acid, and thus between CRO and TCC or AMC (for all of the BSBL bacteria in the table).

[1] = E. coli phenotype BSBL, six wafers
[2] = E. coli phenotype Carbapenemase, six wafers
[3] = E. coli phenotype Hl cephalosporinase, six wafers
[4] = E. coli phenotype Hl penicillinase, six wafers
[5] = E. coli phenotype Inhibitor resistant penicillinase, six wafers
[6] = E. coli phenotype Ll penicillinase, six wafers
[7] = E. coli phenotype Wild, six wafers in a circle
[8] = E. coli phenotype Cephalosporinase + R to fluoroquinolones + R to cotrimoxazole + partial R to aminosides, sixteen wafers
[9] = E. coli phenotype Hl penicillinase + R to fluoroquinolones + R to cotrimoxazole + partial R to aminosides, sixteen wafers
[10] = E. coli phenotype Wild, sixteen wafers in a rectangular grid
[11] = K. pneumoniae phenotype Carbapenemase
[12] = K. pneumoniae phenotype Hl cephalosporinase
[13] = K. pneumoniae phenotype Hl penicillinase
[14] = K. pneumoniae phenotype Ll penicillinase
[15] = K. pneumoniae phenotype Cephalosporinase + R to aminosides + R to cotrimoxazole
[16] = P. mirabilis phenotype Hl cephalosporinase
[17] = P. mirabilis phenotype Hl penicillinase
[18] = P. mirabilis phenotype Inhibitor resistant penicillinase
[19] = P. mirabilis phenotype Ll penicillinase

Compound: CO/N=C(\C(=O)N[C@@H]1C(=O)N2C(C(=O)O)=C(CSc3nc(=O)c(=O)[nH]n3C)CS[C@H]12)c1csc(N)n1 [CRO, ceftriaxone]
- synergy zone between two antibiotic wafers placed side by side (Escherichia coli): synergy zone
- synergy zone between two antibiotic wafers placed side by side (Escherichia coli; listed as ceftriaxone): synergy
- resistance (I, R) or sensitivity (S) (Escherichia coli; [1]): R
- resistance (I, R) or sensitivity (S) (Escherichia coli; [2]): R
- resistance (I, R) or sensitivity (S) (Escherichia coli; [3]): R
- resistance (I, R) or sensitivity (S) (Escherichia coli; [4]): S
- resistance (I, R) or sensitivity (S) (Escherichia coli; [5]): S
- resistance (I, R) or sensitivity (S) (Escherichia coli; [6]): S
- resistance (I, R) or sensitivity (S) (Escherichia coli; [7]): S
- resistant (I/R) or sensitive (S) (Escherichia coli; [8]): R
- resistant (I/R) or sensitive (S) (Escherichia coli; [9]): S
- resistant (I/R) or sensitive (S) (Escherichia coli; [10]): S
- resistance (I, R) or sensitivity (S) (Enterobacter aerogenes; E. aerogenes phenotype BSBL): R
- resistance (I, R) or sensitivity (S) (Enterobacter aerogenes; E. aerogenes phenotype Wild): S
- resistance (I, R) or sensitivity (S) (Klebsiella oxytoca): S
- resistance (I, R) or sensitivity (S) (Klebsiella pneumoniae; K. pneumoniae phenotype BSBL): I/R
- resistance (I, R) or sensitivity (S) (Klebsiella pneumoniae; [11]): R
- resistance (I, R) or sensitivity (S) (Klebsiella pneumoniae; [12]): I/R
- resistance (I, R) or sensitivity (S) (Klebsiella pneumoniae; [13]): I
- resistance (I, R) or sensitivity (S) (Klebsiella pneumoniae; [14]): S
- resistance (I, R) or sensitivity (S) (Klebsiella pneumoniae; K. pneumoniae phenotype Wild): S
- resistant (I/R) or sensitive (S) (Klebsiella pneumoniae; [15]): R
- resistant (I/R) or sensitive (S) (Klebsiella pneumoniae; K. pneumoniae phenotype Wild): R
- resistance (I, R) or sensitivity (S) (Proteus mirabilis; [16]): R
- resistance (I, R) or sensitivity (S) (Proteus mirabilis; [17]): S
- resistance (I, R) or sensitivity (S) (Proteus mirabilis; [18]): S
- resistance (I, R) or sensitivity (S) (Proteus mirabilis; [19]): S
- resistance (I, R) or sensitivity (S) (Proteus mirabilis; P. mirabilis phenotype Wild): S
- resistance (I, R) or sensitivity (S) (Enterobacter cloacea; E. cloacae phenotype BSBL): R
- resistance (I, R) or sensitivity (S) (Enterobacter cloacea; E. cloacae phenotype Wild): S
- synergy phenotype between antibiotics (BSBL bacteria): synergy

Compound: amoxicillin-clavulanic acid [AMC]
- synergy zone between two antibiotic wafers placed side by side (Escherichia coli): synergy zone
- synergy zone between two antibiotic wafers placed side by side (Escherichia coli; listed as amoxicillin+clavulanic acid): synergy
- resistance (I, R) or sensitivity (S) (Escherichia coli; [1]): R
- resistance (I, R) or sensitivity (S) (Escherichia coli; [2]): R
- resistance (I, R) or sensitivity (S) (Escherichia coli; [3]): R
- resistance (I, R) or sensitivity (S) (Escherichia coli; [4]): I/R
- resistance (I, R) or sensitivity (S) (Escherichia coli; [5]): R
- resistance (I, R) or sensitivity (S) (Escherichia coli; [6]): S
- resistance (I, R) or sensitivity (S) (Escherichia coli; [7]): S
- resistant (I/R) or sensitive (S) (Escherichia coli; [8]): R
- resistant (I/R) or sensitive (S) (Escherichia coli; [9]): I
- resistant (I/R) or sensitive (S) (Escherichia coli; [10]): S
- resistance (I, R) or sensitivity (S) (Enterobacter aerogenes; E. aerogenes phenotype BSBL): R
- resistance (I, R) or sensitivity (S) (Enterobacter aerogenes; E. aerogenes phenotype Wild): S
- resistance (I, R) or sensitivity (S) (Klebsiella oxytoca): S
- resistance (I, R) or sensitivity (S) (Klebsiella pneumoniae; K. pneumoniae phenotype BSBL): R
- resistance (I, R) or sensitivity (S) (Klebsiella pneumoniae; [11]): R
- resistance (I, R) or sensitivity (S) (Klebsiella pneumoniae; [12]): I/R
- resistance (I, R) or sensitivity (S) (Klebsiella pneumoniae; [13]): I/R
- resistance (I, R) or sensitivity (S) (Klebsiella pneumoniae; [14]): S
- resistance (I, R) or sensitivity (S) (Klebsiella pneumoniae; K. pneumoniae phenotype Wild): S
- resistant (I/R) or sensitive (S) (Klebsiella pneumoniae; [15]): R
- resistant (I/R) or sensitive (S) (Klebsiella pneumoniae; K. pneumoniae phenotype Wild): R
- resistance (I, R) or sensitivity (S) (Proteus mirabilis; [16]): R
- resistance (I, R) or sensitivity (S) (Proteus mirabilis; [17]): I
- resistance (I, R) or sensitivity (S) (Proteus mirabilis; [18]): R
- resistance (I, R) or sensitivity (S) (Proteus mirabilis; [19]): S
- resistance (I, R) or sensitivity (S) (Proteus mirabilis; P. mirabilis phenotype Wild): S
- resistance (I, R) or sensitivity (S) (Enterobacter cloacea; E. cloacae phenotype BSBL): R
- resistance (I, R) or sensitivity (S) (Enterobacter cloacea; E. cloacae phenotype Wild): S
- synergy phenotype between antibiotics (BSBL bacteria): synergy
